Activity calls are given as the source filed them. Cut-off read from the data, not from the text of the source, for most assays here: actives have a measured Kd and inactives only a lower limit.
Legend:
[1] = biological target: cAMP-dependent protein kinase catalytic subunit beta (Homo sapiens, UniProt P22694)
[2] = biological target: Mitogen-activated protein kinase 8 (Homo sapiens, UniProt P45983)
Midasin = Midasin (Homo sapiens, UniProt Q9NU22)
[3] = biological target: Protein kinase C beta type (Homo sapiens, UniProt P05771)
Protein kinase C beta type, sequence (P05771 whole entry): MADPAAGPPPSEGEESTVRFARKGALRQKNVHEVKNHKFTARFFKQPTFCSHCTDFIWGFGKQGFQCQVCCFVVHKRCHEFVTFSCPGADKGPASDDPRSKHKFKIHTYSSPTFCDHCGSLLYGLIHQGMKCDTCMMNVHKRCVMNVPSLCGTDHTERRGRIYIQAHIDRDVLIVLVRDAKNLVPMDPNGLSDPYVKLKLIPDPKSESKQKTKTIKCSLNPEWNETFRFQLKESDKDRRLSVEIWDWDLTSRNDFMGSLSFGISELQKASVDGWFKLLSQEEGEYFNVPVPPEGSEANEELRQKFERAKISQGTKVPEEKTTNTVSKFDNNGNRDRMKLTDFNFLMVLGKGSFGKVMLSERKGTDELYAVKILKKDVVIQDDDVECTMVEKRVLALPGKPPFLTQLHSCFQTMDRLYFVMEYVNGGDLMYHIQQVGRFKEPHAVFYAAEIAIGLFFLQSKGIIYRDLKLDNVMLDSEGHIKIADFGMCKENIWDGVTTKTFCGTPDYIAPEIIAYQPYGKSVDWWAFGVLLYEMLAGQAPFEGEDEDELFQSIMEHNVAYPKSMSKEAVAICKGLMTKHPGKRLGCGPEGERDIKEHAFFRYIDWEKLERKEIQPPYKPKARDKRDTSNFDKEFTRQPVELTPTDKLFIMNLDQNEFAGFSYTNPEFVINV

[4] = biological target: DNA topoisomerase 2-alpha (Homo sapiens, UniProt P11388)
DNA topoisomerase 2-alpha, sequence (P11388 whole entry): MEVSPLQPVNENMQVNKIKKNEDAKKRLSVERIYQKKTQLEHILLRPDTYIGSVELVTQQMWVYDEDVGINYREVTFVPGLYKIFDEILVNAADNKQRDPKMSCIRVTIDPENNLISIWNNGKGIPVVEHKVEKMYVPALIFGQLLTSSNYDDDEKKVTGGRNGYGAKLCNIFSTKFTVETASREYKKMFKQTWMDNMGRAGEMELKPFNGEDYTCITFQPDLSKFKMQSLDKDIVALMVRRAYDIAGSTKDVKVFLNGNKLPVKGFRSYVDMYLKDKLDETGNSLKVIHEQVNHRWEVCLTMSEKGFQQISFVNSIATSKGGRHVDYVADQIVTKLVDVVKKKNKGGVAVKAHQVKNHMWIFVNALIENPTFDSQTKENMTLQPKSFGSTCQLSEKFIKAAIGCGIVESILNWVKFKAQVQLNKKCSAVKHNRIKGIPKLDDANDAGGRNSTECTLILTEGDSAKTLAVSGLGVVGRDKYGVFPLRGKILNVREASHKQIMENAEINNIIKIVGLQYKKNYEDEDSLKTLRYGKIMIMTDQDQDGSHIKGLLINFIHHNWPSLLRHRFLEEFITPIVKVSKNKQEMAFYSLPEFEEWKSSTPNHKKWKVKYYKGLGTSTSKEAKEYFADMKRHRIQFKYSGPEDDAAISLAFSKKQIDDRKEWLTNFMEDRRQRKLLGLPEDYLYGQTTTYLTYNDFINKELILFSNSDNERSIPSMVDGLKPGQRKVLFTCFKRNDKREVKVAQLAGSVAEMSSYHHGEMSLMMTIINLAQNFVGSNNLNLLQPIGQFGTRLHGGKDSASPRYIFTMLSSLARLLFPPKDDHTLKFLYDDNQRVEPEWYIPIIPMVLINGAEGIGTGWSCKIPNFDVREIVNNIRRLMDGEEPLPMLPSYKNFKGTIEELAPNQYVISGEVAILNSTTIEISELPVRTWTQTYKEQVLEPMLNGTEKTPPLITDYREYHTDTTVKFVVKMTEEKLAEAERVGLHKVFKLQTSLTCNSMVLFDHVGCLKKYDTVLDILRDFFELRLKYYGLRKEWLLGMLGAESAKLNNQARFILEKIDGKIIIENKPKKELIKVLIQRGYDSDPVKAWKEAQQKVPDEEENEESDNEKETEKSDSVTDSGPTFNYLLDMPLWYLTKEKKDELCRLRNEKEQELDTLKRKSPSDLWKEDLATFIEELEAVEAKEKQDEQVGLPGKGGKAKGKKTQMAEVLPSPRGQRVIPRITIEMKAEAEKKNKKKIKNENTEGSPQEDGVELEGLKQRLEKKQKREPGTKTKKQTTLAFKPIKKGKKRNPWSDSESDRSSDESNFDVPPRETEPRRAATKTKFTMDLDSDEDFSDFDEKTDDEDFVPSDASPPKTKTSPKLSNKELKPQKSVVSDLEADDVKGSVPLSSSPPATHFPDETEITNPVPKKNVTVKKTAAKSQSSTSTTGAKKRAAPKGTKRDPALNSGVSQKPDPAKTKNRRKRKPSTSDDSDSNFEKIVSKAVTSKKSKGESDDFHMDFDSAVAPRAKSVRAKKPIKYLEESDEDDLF

[5] = biological target: Dual specificity protein kinase CLK1 (Homo sapiens, UniProt P49759)
Dual specificity protein kinase CLK1, sequence (P49759 whole entry): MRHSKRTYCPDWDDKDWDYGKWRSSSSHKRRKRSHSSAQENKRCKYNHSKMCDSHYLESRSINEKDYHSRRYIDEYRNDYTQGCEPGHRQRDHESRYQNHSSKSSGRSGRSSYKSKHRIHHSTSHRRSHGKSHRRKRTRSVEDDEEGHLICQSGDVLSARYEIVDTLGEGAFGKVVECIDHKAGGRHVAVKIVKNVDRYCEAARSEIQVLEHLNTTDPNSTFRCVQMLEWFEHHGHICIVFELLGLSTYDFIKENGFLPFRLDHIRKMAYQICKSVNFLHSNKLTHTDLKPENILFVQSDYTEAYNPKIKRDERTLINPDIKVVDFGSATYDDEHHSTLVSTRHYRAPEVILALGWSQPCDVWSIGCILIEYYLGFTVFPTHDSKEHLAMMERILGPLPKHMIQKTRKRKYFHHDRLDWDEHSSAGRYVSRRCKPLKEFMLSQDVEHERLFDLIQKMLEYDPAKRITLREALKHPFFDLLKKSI

[6] = biological target: T1, ATP-dependent 6-phosphofructokinase, platelet type (Homo sapiens, UniProt Q01813)
T1 sequence (Q01813 whole entry): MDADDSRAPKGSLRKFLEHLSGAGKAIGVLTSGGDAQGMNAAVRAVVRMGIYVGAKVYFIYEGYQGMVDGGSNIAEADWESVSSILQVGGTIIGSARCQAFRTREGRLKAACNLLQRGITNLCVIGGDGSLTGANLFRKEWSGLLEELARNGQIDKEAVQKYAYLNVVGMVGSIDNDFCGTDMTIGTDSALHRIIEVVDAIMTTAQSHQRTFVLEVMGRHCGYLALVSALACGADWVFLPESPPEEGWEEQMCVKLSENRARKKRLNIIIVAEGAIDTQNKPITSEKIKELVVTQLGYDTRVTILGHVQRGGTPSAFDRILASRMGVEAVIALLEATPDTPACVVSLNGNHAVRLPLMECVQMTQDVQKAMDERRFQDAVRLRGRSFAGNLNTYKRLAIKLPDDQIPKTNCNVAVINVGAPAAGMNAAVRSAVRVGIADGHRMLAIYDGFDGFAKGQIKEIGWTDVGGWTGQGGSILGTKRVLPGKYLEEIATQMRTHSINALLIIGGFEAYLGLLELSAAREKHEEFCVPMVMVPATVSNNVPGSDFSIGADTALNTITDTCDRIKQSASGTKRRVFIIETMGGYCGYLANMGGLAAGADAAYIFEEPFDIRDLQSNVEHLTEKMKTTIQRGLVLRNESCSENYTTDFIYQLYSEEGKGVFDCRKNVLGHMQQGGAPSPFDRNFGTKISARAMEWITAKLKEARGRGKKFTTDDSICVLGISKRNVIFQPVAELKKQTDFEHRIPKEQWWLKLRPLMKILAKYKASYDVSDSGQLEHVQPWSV

[7] = biological target: T2, Serine/threonine-protein kinase 4 (Homo sapiens, UniProt Q13043)
T2 sequence (Q13043 whole entry): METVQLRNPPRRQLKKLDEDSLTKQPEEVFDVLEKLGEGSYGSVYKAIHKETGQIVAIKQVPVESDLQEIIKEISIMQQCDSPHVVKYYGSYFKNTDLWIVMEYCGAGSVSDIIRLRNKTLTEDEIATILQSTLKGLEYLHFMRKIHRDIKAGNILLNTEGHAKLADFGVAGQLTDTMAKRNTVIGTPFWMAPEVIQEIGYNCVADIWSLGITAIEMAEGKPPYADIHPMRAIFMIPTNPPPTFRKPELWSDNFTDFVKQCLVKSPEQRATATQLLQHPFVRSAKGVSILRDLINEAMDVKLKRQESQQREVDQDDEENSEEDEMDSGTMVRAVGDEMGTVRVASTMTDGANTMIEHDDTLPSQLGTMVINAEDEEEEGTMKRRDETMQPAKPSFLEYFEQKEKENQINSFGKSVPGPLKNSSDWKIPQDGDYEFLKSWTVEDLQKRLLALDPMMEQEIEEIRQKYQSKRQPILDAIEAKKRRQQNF

[8] = biological target: T3, Cyclin-G-associated kinase (Homo sapiens, UniProt O14976)
T3 sequence (O14976 whole entry): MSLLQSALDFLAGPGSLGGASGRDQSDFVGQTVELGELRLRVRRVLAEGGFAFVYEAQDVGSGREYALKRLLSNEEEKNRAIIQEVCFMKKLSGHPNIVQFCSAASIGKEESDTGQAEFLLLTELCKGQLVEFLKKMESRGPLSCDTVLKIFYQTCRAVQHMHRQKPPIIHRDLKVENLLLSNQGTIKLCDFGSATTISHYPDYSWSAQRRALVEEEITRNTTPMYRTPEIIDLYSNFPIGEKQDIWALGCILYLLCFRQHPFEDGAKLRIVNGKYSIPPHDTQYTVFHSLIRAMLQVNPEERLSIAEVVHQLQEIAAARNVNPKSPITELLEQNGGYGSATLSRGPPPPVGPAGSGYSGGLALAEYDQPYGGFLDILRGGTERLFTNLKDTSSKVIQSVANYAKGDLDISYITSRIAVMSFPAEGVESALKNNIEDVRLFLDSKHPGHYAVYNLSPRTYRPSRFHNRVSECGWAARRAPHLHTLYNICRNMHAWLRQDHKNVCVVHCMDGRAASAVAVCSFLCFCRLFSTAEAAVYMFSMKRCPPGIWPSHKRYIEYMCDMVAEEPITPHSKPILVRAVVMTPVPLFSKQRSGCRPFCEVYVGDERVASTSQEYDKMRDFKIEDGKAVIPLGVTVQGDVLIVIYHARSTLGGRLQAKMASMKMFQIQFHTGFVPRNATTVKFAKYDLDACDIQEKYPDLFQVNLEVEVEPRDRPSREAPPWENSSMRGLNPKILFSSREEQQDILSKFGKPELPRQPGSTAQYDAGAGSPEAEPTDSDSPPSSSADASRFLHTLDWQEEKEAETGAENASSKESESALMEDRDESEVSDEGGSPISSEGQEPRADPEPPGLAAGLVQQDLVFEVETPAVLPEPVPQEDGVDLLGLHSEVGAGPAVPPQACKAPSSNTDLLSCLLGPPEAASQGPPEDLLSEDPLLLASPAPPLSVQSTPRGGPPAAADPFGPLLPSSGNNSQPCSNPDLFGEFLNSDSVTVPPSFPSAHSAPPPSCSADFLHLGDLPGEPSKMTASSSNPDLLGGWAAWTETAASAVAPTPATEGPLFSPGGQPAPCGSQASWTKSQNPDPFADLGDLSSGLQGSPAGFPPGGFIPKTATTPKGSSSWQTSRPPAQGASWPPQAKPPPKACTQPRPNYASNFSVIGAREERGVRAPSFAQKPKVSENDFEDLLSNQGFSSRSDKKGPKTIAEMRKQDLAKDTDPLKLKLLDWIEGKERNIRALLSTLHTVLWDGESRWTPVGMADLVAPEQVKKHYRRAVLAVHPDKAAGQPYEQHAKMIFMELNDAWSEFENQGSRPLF

[9] = biological target: Putative heat shock protein HSP 90-beta 2 (Homo sapiens, UniProt Q58FF8)
Putative heat shock protein HSP 90-beta 2, sequence (Q58FF8 whole entry): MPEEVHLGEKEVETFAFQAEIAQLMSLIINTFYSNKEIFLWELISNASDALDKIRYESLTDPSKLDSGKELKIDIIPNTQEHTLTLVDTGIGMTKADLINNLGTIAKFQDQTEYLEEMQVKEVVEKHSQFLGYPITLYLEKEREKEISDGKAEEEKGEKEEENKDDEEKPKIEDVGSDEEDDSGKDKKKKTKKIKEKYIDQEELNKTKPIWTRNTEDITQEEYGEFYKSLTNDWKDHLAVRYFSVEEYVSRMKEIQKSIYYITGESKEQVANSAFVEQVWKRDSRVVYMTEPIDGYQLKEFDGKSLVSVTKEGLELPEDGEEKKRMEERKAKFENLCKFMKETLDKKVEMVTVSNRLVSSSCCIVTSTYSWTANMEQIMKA

[10] = biological target: Serine/threonine-protein kinase SIK2 (Homo sapiens, UniProt Q9H0K1)
Serine/threonine-protein kinase SIK2, sequence (Q9H0K1 whole entry): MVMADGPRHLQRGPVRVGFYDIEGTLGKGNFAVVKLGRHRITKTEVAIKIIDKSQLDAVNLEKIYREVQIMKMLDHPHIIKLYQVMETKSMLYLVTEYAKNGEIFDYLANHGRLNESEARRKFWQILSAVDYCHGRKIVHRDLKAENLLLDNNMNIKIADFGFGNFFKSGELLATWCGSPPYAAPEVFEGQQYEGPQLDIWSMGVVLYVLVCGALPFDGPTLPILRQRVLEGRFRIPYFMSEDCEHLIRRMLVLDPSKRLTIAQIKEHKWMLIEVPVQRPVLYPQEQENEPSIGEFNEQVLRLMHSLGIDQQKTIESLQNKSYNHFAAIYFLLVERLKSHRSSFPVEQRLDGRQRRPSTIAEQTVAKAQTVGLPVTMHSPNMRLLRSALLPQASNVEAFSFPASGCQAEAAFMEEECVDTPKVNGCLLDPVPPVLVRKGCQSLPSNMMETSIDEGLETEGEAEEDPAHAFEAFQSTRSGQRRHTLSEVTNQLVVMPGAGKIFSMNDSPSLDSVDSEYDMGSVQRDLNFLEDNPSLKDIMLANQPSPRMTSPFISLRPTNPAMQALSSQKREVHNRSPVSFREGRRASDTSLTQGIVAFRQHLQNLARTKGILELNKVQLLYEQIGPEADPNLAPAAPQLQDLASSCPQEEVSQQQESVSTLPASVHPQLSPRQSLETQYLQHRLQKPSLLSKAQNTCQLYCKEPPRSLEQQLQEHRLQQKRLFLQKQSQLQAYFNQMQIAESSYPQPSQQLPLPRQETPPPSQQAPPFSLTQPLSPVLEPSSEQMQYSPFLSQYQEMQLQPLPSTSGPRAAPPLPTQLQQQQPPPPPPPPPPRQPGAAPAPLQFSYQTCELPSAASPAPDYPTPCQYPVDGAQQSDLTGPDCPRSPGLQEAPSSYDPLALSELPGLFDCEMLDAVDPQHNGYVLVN

Measured: Kd
Note: in the data inactive means no Kd found up to 30 µM.

Mitogen-activated protein kinase 8, sequence (P45983 whole entry): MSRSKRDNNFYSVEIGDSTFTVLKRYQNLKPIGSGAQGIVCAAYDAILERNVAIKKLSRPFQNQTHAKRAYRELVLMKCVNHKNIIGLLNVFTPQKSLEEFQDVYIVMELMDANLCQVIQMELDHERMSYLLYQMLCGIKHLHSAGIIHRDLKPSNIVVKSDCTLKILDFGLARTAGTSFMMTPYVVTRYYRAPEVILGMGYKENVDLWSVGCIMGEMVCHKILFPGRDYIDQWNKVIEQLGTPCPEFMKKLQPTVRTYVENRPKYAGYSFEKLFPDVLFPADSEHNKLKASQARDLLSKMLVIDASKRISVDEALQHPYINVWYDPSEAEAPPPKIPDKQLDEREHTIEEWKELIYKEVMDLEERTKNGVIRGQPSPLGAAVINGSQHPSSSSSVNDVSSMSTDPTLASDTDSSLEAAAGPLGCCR

O=C(Nc1ccc(-c2ccnc(Nc3ccc(N4CCOCC4)cc3)n2)cc1)C1CCCN1 (stereo not given) [XL-019]
active: [2] 0.844 µM | [8] 0.05 µM | [10] 0.3 µM
inactive: [1] > 30 µM | Midasin > 30 µM | [3] > 30 µM | [4] > 30 µM | [5] > 30 µM | [6] > 30 µM | [7] > 30 µM | [9] > 30 µM

O=C(c1ccc(F)c(F)c1Nc1ccc(I)cc1F)N1CC(O)([C@@H]2CCCCN2)C1 [COBIMETINIB]
inactive: [1] > 30 µM | [2] > 30 µM | Midasin > 30 µM | [3] > 30 µM | [4] > 30 µM | [5] > 30 µM | [6] > 30 µM | [7] > 30 µM | [8] > 30 µM | [9] > 30 µM | [10] > 30 µM

Cc1cc(-c2cc(O)ccc2Cl)cc2nnc(Nc3ccc(OCCN4CCCC4)cc3)nc12
inactive: [1] > 30 µM | [2] > 30 µM | Midasin > 30 µM | [3] > 30 µM | [4] > 30 µM | [5] > 30 µM | [6] > 30 µM | [7] > 30 µM | [9] > 30 µM
active: [8] 0.002 µM | [10] 0.002 µM

COc1cc(CCc2cc(NC(=O)c3ccc(N4C[C@@H](C)N[C@@H](C)C4)cc3)n[nH]2)cc(OC)c1 [AZD-4547]
inactive: [1] > 30 µM | [2] > 30 µM | Midasin > 30 µM | [3] > 30 µM | [4] > 30 µM | [5] > 30 µM | [6] > 30 µM | [7] > 30 µM | [8] > 30 µM | [9] > 30 µM | [10] > 30 µM

Cc1cc([C@@H](C)Nc2ccccc2C(=O)O)c2nc(N3CCOCC3)cc(=O)n2c1 [AZD-6482]
inactive: [1] > 30 µM | [2] > 30 µM | Midasin > 30 µM | [3] > 30 µM | [4] > 30 µM | [5] > 30 µM | [6] > 30 µM | [7] > 30 µM | [8] > 30 µM | [9] > 30 µM | [10] > 30 µM

From ChEMBL document CHEMBL3991601, “The target landscape of clinical kinase drugs” (Science, 2017)
